Data on three molecules can be found in patent US20100249027A1, “CRF CONJUGATES WITH EXTENDED HALF-LIVES” (priority 2007, published 2010).

Like-named read-outs stand apart in the source and are kept apart here. Where no end group is shown, it is not given here.

A short description of data set [1]: plasma concentration time profile of hCRF after single intravenous and single subcutaneous injection (ELISA). Format: in vivo, Sprague-Dawley Crl:CD rats. The conditions noted are these: rat; for bioavailability: sc. The text has this: The objective of this study was to determine the plasma concentration time profile of hCRF following a single intravenous and a single subcutaneous injection in three groups of Sprague-Dawley Crl:CD® :R rats. […] For the intravenous portion of the study, each of the three dose groups consisted of 72 males. Each of these groups was divided into three sets of replicates. Seven days after the intravenous portion of the study, 61 of the 72 animals from each of the three dose groups were randomly selected for the subcutaneous portion of the study. Each dose group was divided into three sets of replicates. Blood samples were taken at multiple time points via orbital sinus bleeding. Following intravenous dosing, blood samples were collected at time points out to 24 hours post dose. Following subcutaneous dosing, blood samples were collected at time points out to 48 hours post dose. Blood samples were collected from three rats in each dose group for each time point. […] All of the surviving animals were euthanized on the third day following subcutaneous dosing.
Plasma samples were prepared and hCRF concentrations in the plasma samples were determine by an ELISA method. […] Pharmacokinetic analyses were conducted for this dose group using the limited data obtained.
On the technique in general: ELISA stands for enzyme-linked immunosorbent assay.

The target in data set [2] is T1, CRF R1 (Homo sapiens, UniProt P34998).
T1 sequence (P34998 24-415): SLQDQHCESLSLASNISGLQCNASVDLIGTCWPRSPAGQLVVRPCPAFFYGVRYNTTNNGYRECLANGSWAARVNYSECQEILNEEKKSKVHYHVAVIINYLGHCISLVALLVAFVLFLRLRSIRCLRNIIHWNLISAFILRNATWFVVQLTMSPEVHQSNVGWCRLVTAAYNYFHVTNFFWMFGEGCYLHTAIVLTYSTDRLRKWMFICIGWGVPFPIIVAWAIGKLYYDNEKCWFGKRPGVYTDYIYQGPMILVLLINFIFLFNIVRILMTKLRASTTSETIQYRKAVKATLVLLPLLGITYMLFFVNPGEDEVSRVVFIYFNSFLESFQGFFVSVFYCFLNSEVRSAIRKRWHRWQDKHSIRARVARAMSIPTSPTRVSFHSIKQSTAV
The conditions noted are these: cited from earlier work.

A word on the AUC: it is concentration integrated over time. A higher AUC goes with more exposure. By Cmax is commonly meant the maximum level reached in the sampled fluid or tissue. In general, bioavailability refers to dose-corrected exposure relative to a reference, in per cent. Higher therefore signals much systemic uptake. Take `CC[C@H](C)[C@H](NC(=O)[C@@H](NC(=O)[C@H](CCC(=O)O)NC(=O)[C@H](CCSC)NC(=O)[C@H](CC(C)C)NC(=O)[C@H](CCCCN)NC(=O)[C@H](CCCNC(=N)N)NC(=O)[C@H](CC(N)=O)NC(=O)[C@H](CO)NC(=O)[C@H](Cc1c[nH]cn1)NC(=O)[C@H](C)NC(=O)[C@H](CCC(N)=O)NC(=O)[C@H](CCC(N)=O)NC(=O)[C@H](C)NC(=O)[C@H](CC(C)C)NC(=O)[C@H](CCC(N)=O)NC(=O)[C@H](CCC(=O)O)NC(=O)[C@H](C)NC(=O)[C@H](CCCNC(=N)N)NC(=O)[C@H](C)NC(=O)[C@H](CCSC)NC(=O)[C@H](CCC(=O)O)NC(=O)[C@H](CC(C)C)NC(=O)[C@@H](NC(=O)[C@H](CCC(=O)O)NC(=O)[C@H](CCCNC(=N)N)NC(=O)[C@H](CC(C)C)NC(=O)[C@H](CC(C)C)NC(=O)[C@H](Cc1c[nH]cn1)NC(=O)[C@H](Cc1ccccc1)NC(=O)[C@@H](NC(=O)[C@H](CC(C)C)NC(=O)[C@H](CC(=O)O)NC(=O)[C@H](CC(C)C)NC(=O)[C@H](CO)NC(=O)[C@@H](NC(=O)[C@@H]1CCCN1C(=O)[C@@H]1CCCN1C(=O)[C@H](CCC(=O)O)NC(=O)[C@H](CCC(=O)O)NC(=O)[C@@H](N)CO)[C@@H](C)CC)[C@@H](C)O)C(C)C)[C@@H](C)CC)C(N)=O` [hCRF]: the exposure (AUC) in data set [1] (in vivo, 10 ug/kg, IV) was 5.5 ng·h/mL; in data set [1] (in vivo, 100 ug/kg, IV) it was 516 ng·h/mL; in data set [1] (in vivo, 100 ug/kg, SC), 214 ng·h/mL; in data set [1] (in vivo, 1000 ug/kg, SC) it was 1790 ng·h/mL; in data set [1] (in vivo, IV, 1,000 μg/kg) it was 4880 ng·h/mL. The Cmax in data set [1] (in vivo, 10 ug/kg, IV) was found to be 25.1 ± 3.8 ng/mL; in data set [1] (in vivo, 100 ug/kg, IV) it was 1040 ± 105 ng/mL; in data set [1] (in vivo, 100 ug/kg, SC) it was 108 ± 16.7 ng/mL; in data set [1] (in vivo, 1000 ug/kg, SC) it was 618 ± 78.9 ng/mL; in data set [1] (in vivo, IV, 1,000 μg/kg) it was 7600 ± 488 ng/mL. In addition, the clearance turned out to be 30 ± 3.06 mL/min/kg in data set [1] (in vivo, 10 ug/kg, IV); 3.23 ± 0.26 mL/min/kg in data set [1] (in vivo, 100 ug/kg, IV); 3.42 ± 0.18 mL/min/kg in data set [1] (in vivo, IV, 1,000 μg/kg). Besides, the half-life in data set [1] (in vivo, 10 ug/kg, intravenous, 10 μg/kg, single exponential clearance, read-out: half-life) is 9.2 min; in data set [1] (in vivo, 100 ug/kg, intravenous, 100 μg/kg, single exponential clearance, read-out: half-life) it was 20.7 min; in data set [1] (in vivo, intravenous, 1,000 μg/kg, single exponential clearance, read-out: half-life), 26.7 min; in data set [1] (male, Sprague-Dawley Crl:CD, plasma, 100 ug/kg, SC, 100 μg/kg, read-out: t1/2β (terminal)) it was 62.6 ± 5.9 min; in data set [1] (male, Sprague-Dawley Crl:CD, plasma, 1000 ug/kg, SC, 1000 μg/kg, read-out: t1/2β (terminal)), 72.1 ± 14.8 min. Besides, the bioavailability is 41% in data set [1] (in vivo, 100 ug/kg, subcutaneous) and 37% in data set [1] (in vivo, subcutaneous, 1,000 μg/kg). In addition, the t1/2α is 9.22 ± 1.05 min in data set [1] (IV, 10 μg/kg); 20.71 ± 0.92 min in data set [1] (IV, 100 μg/kg); 26.69 ± 0.62 min in data set [1] (IV, 1,000 μg/kg); 6.96 ± 3.44 min in data set [1] (SC, 100 μg/kg); 21.56 ± 8.15 min in data set [1] (SC, 1000 μg/kg). Moreover, the Bioavail. in data set [1] (SC, 100 μg/kg) was 41 ± 6%; in data set [1] (SC, 1000 μg/kg) it was 37 ± 5%. The CL in data set [1] (SC, 100 μg/kg) stood at 7.78 ± 1.01 mL/min/kg; in data set [1] (SC, 1000 μg/kg), 9.30 ± 1.05 mL/min/kg. Further, the “dose proportionality of pharmacokinetics” value in data set [1] (intravenously or subcutaneously, between 100 and 1,000 μg/kg) was “dose proportional”.

Consider “III: CRF-related peptide Ucn III, also known as stresscopin (FTLSLDVPTNIMNLLFNIAKAKNLRAQAAANAHLMAQI; ends and bridges not checked; UniProt Q969E3 120-157, looked up)”, for which the “affinity for the CRF R1 subtype” value in data set [2] is on record as “little affinity”.

Turning to “Ucn II: CRF-related peptide urocortin II, 26% sequence homology to CRF (IVLSLDVPIGLLQILLEQARARAAREQATTNARILARVGHC; ends and bridges not checked; UniProt Q96RP3 72-112, looked up)”, the “affinity for the CRF R1 subtype” value in data set [2] is reported as “little affinity”.
